The target in one experiment is EGFR L858R/T790M (Homo sapiens, UniProt P00533, L858R/T790M). As to the kind of experiment: HTRF-based EGFR biochemical assay (L858R/T790M). The conditions noted are these: enzyme 0.02 nM, ATP 100 µM, 30 min preincubation. Here is the method:
(§1) EGFR biochemical activity measurements were carried out using the homogeneous time-resolved fluorescence (HTRF) assay (Cisbio). Inhibitors and DMSO normalizations were first dispensed to empty black low-volume 384-well plates (Corning) with D300 digital liquid dispenser (HP). All reactions were carried out at room temperature and solutions were added to plates with a Multidrop Combi Reagent Dispenser (ThermoFisher). The reaction mixture (10 µL final volume) contained 1 µM tyrosine kinase peptide-biotin substrate and mutant EGFR in a reaction buffer (50 mM HEPES pH 7.0, 5 mM MgCl2, 1 mM MnCl2, 0.01% BSA, 2 mM TCEP, 0.1 mM NaVO4). Enzyme concentrations were adjusted to accommodate varying kinase activities (L858R 0.1 nM, L858R/T790M 0.02 nM). Enzyme reaction solution (2× concentrations, 5 µL) was added to 384-well plates containing compounds and incubated for 30 mins. Enzyme reactions were initiated with the addition of 5 µL of ATP to a final concentration of 100 µM and reacted for 20 mins. Reactions were quenched with the addition of 10 µL of phospho-tyrosine antibody-Europium(III) cryptate (1-to-180 volume ratio) and Streptavidin-XL665 (46.7 nM) in EDTA-containing detection buffer, then incubated at room temperature for 1 hour, and read with a PHERAstar plate reader (excitation = 337 nm, emission = 620 nm and 665 nm). IC50 values were determined by inhibition curves (11-point curves from 1.0 µM to 0.130 nM or 23-point curves from 1.0 µM to 0.130 pM) in triplicate with non-linear least squares fit in GraphPad Prism 7.0d.

The target of experiment [1] is EGFR mutant L858R Ba/F3 cells (Homo sapiens, UniProt P00533, L858R, cells depend on it). As to the kind of experiment: Ba/F3 cell proliferation model (Cell Titer Glo), EGFR L858R. The class given is cell-based, murine. As to conditions: single agent, 72 hours; read-out: Cell ICso BaF3 EGFR L858R. The text has this:
(§2) The EGFR mutant L858R and L858R/T790M Ba/F3 cells have been previously described (Zhou, W., et al. Nature 462, 2009, 1070-1074). All cell lines were maintained in RPMI 1640 (Cellgro; Mediatech Inc., Herndon, CA) supplemented with 10% FBS, 100 units/mL penicillin, 100 units/mL streptomycin. The EGFR I941R mutation was introduced via site directed mutagenesis using the Quick Change Site-Directed Mutagenesis kit (Stratagene; La Jolla, CA) according to the manufacturer’s instructions. All constructs were confirmed by DNA sequencing. The constructs were shuttled into the retroviral vector JP1540 using the Cre-recombination system (Agilent Technologies, Santa Clara, CA). Ba/F3 cells were then infected with retrovirus per standard protocols, as described previously (Zhou, et al, Nature 2009). Stable clones were obtained by selection in puromycin (2 µg/ml).
(§3) Growth and inhibition of growth was assessed by the Cell Titer Glo assay (Promega, Madison, WI) and was performed according to the manufacturer’s instructions. The Cell Titer Glo assay is a luminescence-based method used to determine the number of viable cells based on quantitation of the ATP present, which is directly proportional to the amount of metabolically active cells present. Ba/F3 cells of different EGFR genotypes were exposed to compounds as a single agent or in combination with 1 µg/mL cetuximab for 72 hours and the number of cells used per experiment was determined empirically as has been previously established (Zhou, et al., Nature 2009). All experimental points were set up in triplicates in 384-well plates and all experiments were repeated at least three times. […] The curves were fitted using a non-linear regression model with a sigmoidal dose response.
(In ATP-based viability assays light output follows the ATP content of the culture.)

The target in experiment [2] is EGFR mutant L858R/T790M Ba/F3 cells (Homo sapiens, UniProt P00533, T790M/L858R, cells depend on it). As to the kind of experiment: Ba/F3 cell proliferation model (Cell Titer Glo), EGFR L858R/T790M. Format: cell-based, murine. As to conditions: 72 hours.
EGFR mutant L858R/T790M Ba/F3 cells, sequence (P00533 whole entry T790M/L858R): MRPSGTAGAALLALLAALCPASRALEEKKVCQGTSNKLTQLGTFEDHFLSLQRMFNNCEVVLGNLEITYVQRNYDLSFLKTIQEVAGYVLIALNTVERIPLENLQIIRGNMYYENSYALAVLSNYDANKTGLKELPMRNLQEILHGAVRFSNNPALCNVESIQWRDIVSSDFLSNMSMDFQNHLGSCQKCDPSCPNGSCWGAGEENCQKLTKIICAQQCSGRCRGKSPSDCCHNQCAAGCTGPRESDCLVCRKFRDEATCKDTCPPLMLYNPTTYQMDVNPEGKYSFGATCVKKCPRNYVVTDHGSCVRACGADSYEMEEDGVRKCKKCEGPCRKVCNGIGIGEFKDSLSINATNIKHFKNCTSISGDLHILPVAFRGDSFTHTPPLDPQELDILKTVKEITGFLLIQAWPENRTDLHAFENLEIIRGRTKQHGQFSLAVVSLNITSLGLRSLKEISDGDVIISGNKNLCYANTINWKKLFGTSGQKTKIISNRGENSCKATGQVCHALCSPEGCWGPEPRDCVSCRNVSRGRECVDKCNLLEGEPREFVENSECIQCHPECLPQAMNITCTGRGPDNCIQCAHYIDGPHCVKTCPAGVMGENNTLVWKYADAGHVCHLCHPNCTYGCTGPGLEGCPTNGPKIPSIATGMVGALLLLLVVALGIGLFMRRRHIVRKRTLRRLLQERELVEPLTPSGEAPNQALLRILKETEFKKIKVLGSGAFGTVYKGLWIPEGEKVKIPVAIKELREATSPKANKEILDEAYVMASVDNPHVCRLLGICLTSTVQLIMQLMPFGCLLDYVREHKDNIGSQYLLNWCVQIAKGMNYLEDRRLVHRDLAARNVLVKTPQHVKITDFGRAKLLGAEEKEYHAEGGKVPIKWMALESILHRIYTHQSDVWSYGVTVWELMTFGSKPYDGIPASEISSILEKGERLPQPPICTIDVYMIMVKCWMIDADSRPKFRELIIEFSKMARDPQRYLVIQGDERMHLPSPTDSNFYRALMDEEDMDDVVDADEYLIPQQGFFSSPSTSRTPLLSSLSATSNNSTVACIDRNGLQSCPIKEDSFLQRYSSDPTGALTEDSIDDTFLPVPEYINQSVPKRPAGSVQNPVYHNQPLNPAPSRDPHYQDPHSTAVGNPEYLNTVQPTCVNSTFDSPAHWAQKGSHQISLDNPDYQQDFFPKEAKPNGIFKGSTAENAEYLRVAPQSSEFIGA
Text: as §2, §3

The next experiment concerns the target EGFR L858R (Homo sapiens, UniProt P00533, L858R). As to the kind of experiment: HTRF-based EGFR biochemical assay (L858R). As to conditions: enzyme 0.1 nM, ATP 100 µM, 30 min preincubation. Here is the method: as §1
The mark [3] stands for this setting: single agent, read-out: Cell IC50 BaF3 EGFR L858R/T790M.

Structures can show the parent of a compound that is named as a salt. Where two headings read alike, the source gives them in different places.

EGFR L858R/T790M, sequence (P00533 25-1210 T790M/L858R): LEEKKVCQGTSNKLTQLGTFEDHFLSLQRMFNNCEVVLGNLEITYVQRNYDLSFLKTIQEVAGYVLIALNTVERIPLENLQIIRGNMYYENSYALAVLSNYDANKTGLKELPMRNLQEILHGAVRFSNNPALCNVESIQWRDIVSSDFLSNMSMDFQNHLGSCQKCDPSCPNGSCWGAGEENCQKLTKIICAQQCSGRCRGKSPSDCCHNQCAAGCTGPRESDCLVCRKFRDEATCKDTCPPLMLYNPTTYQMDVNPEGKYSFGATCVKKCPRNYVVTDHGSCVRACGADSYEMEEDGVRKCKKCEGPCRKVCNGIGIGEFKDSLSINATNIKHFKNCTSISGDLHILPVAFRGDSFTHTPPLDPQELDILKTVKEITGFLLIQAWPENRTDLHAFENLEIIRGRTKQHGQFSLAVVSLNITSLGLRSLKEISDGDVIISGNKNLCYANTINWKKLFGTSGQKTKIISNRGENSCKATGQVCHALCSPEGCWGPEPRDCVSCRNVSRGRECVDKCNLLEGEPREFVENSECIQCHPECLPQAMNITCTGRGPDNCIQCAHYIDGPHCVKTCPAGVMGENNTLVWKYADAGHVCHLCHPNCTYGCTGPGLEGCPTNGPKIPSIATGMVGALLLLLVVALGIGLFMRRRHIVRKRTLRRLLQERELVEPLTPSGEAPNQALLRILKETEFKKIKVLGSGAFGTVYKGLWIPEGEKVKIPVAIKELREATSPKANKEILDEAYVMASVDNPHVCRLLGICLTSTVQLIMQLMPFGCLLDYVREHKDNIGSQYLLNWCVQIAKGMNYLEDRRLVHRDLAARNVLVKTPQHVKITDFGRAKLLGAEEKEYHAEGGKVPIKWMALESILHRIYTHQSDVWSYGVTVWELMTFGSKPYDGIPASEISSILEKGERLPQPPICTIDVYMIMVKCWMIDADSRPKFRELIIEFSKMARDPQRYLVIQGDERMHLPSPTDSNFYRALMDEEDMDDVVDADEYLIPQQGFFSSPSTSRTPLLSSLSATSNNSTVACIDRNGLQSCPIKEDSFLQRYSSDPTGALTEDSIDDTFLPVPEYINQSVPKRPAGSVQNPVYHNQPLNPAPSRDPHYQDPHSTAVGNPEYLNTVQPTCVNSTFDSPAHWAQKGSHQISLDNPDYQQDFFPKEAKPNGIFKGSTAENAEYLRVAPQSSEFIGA
EGFR mutant L858R Ba/F3 cells, sequence (P00533 whole entry L858R): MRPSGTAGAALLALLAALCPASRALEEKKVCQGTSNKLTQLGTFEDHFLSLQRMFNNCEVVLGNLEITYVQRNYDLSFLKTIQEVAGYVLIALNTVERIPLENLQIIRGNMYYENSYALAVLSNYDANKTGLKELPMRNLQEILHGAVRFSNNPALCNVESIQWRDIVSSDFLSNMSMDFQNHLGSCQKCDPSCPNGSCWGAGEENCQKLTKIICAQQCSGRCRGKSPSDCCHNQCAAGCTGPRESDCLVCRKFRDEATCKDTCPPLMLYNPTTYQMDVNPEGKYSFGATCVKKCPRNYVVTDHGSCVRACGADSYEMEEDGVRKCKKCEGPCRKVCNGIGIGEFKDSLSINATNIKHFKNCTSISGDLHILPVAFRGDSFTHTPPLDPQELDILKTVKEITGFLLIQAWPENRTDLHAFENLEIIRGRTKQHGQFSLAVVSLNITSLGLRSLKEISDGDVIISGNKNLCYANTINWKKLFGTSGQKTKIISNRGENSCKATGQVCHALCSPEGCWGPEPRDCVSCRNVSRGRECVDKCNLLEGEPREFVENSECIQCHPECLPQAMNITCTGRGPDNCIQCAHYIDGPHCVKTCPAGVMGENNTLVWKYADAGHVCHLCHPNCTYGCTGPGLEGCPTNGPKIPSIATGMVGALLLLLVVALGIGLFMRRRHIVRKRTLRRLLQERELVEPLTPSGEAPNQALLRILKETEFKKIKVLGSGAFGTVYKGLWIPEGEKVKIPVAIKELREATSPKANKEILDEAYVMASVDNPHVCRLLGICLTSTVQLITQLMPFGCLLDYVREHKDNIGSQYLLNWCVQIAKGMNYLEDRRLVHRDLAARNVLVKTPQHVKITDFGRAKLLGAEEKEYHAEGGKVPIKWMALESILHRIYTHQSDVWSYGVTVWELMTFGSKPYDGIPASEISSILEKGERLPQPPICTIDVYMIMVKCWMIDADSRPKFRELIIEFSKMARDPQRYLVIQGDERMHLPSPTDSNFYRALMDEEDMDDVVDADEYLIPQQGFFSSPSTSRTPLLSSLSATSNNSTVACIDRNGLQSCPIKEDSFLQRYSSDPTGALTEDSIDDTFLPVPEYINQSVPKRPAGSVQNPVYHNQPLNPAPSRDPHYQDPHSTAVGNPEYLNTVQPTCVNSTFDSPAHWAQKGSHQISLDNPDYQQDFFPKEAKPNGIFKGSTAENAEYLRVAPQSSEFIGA
EGFR L858R, sequence (P00533 25-1210 L858R): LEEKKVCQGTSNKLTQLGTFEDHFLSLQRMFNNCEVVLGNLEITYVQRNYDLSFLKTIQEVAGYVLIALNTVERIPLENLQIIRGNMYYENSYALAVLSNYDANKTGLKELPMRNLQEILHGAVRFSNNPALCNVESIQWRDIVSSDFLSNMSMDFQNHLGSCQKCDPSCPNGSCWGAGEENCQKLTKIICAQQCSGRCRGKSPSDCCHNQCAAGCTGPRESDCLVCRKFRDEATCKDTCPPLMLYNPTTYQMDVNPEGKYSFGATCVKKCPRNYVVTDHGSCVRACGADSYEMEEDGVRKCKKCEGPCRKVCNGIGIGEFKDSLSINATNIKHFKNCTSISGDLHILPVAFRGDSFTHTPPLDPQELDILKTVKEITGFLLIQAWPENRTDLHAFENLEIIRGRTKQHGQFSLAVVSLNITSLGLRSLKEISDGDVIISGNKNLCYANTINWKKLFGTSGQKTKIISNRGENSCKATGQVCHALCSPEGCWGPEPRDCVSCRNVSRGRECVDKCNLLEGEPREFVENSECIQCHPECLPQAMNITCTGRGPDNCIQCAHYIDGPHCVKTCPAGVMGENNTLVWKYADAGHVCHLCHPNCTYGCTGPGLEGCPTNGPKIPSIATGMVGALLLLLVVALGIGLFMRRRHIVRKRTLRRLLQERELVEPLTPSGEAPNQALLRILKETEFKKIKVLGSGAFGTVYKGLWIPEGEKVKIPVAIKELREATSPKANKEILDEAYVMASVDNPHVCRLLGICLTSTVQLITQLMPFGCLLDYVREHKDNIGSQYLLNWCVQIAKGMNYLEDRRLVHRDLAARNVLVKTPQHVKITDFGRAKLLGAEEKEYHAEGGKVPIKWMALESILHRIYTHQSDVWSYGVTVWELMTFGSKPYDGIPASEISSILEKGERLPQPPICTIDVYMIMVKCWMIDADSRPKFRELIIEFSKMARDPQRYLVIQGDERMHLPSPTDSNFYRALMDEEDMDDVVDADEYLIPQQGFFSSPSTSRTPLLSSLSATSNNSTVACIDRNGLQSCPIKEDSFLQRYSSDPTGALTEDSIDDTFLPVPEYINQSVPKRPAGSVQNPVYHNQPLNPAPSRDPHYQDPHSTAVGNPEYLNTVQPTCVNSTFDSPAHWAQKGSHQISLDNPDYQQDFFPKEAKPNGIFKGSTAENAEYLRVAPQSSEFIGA

For orientation: IC50 means the midpoint of a concentration-inhibition curve. Higher therefore signals weaker potency in that assay. For `CN1CCC(c2ccc(-c3cc4ccn([C@@H](c5nc6ccccc6[nH]5)c5cc(F)ccc5O)c(=O)c4s3)cc2)CC1` (single isomer, unassigned) [Compound 015], the values for the IC50 on EGFR L858R/T790M and at EGFR L858R were 0.2 nM and 0.9 nM, respectively. The values for the GI50 in experiment [1] and in experiment [2] (setting [3]) were 40 nM and 10 nM, respectively.

Regarding `CN1CCC(c2ccc(-c3cc4c(=O)n(C(C(=O)Nc5nccs5)c5ccccc5)cnn4c3)cc2)CC1` (stereo not shown) [Compound 001, 2-(6-(4-(1-Methylpiperidin-4-Yl)Phenyl)-4-Oxopyrrolo[2,1-f][1,2,4]-Triazin-3(4H)-Yl)-2-Phenyl-N-(Thiazol-2-yl)Acetamide;Hydrochloride], the IC50 worked out at 1 nM on EGFR L858R/T790M and 5 nM on EGFR L858R. The GI50 in experiment [2] (in combination with 1 µg/mL cetuximab, read-out: Cell IC50 BaF3 EGFR L858R/T790M (+ cetux.)) was 90 nM; in experiment [2] (setting [3]), 2300 nM.

On to `CN1CCC(c2ccc(-c3cc4c(=O)n(C(c5ccccc5)c5nc6ccccc6[nH]5)cnn4c3)cc2)CC1` (stereo not shown) [Compound 002, 3-((1H-Benzo[d]Imidazol-2-Yl)(Phenyl)Methyl)-6-(4-(1-Methylpiperidin-4-Yl)Phenyl)Pyrrolo [2,1-f][1,2,4]Triazin-4(3H)-One;Hydrochloride], for which the IC50 at EGFR L858R/T790M and against EGFR L858R was over 100 nM throughout. Also, the GI50 in experiment [1] was found to be 2240 nM; in experiment [2] (setting [3]) it was 2630 nM.

Turning to `CN1CCC(c2ccc(-c3cc4ncn(C(C(=O)Nc5nccs5)c5ccccc5)c(=O)c4s3)cc2)CC1` (stereo not shown) [Compound 003, 2-(6-(4-(1-Methylpiperidin-4-Yl)Phenyl)-4-Oxothieno[3,2-d)Pyrimidin-3(4H)-Yl)-2-Phenyl-N-(Thiazol-2-Yl)Acetamide], the values for the IC50 against EGFR L858R/T790M and at EGFR L858R were 29 nM and 31 nM, respectively. Moreover, the GI50 turned out to be 850 nM in experiment [1] and 890 nM in experiment [2] (setting [3]).

Regarding `CN1CCC(c2ccc(-c3cc4ncn(C(c5ccccc5)c5nc6ccccc6[nH]5)c(=O)c4s3)cc2)CC1` (stereo not shown) [Compound 004, 3-((1H-benzo[d]imidazol-2-yl)(phenyl)methyl)-6-(4-(1-methylpiperidin-4-yl)phenyl)thieno[3,2-d]pyrimidin-4(3H)-one], the IC50 against EGFR L858R/T790M and against EGFR L858R was over 100 nM throughout. Moreover, the GI50 in experiment [1] worked out at 4570 nM; in experiment [2] (setting [3]), 3680 nM.

With `CN1CCC(c2ccc(-c3cc4c(=O)n(C(C(=O)Nc5nccs5)c5ccccc5)ccc4s3)cc2)CC1` (stereo not shown) [Compound 005, 2-[2-[4-(1-methyl-4-piperidyl)phenyl]-4-oxo-thieno[3,2-c]pyridin-5-yl]-2-phenyl-N-thiazol-2-yi-acetamide], the half-maximal inhibitory concentration (IC50) on EGFR L858R/T790M stood at 0.8 nM; at EGFR L858R it was 3 nM. Moreover, the GI50 in experiment [1] was found to be 1550 nM; in experiment [2] (setting [3]), 2040 nM.

Consider `CN1CCC(c2ccc(-c3cc4c(=O)n(C(c5ccccc5)c5nc6ccccc6[nH]5)ccc4s3)cc2)CC1` (stereo not shown) [Compound 006], for which the half-maximal inhibitory concentration (IC50) against EGFR L858R/T790M stood at 19 nM; against EGFR L858R it was 21 nM. Also, the figures for the GI50 in experiment [1] and in experiment [2] (setting [3]) were 3130 nM and 3550 nM, respectively.

On to `CN1CCC(c2ccc(-c3cc4ccn(C(C(=O)Nc5nccs5)c5ccccc5)c(=O)c4s3)cc2)CC1` (stereo not shown) [Compound 007, 2-[2-[4-(1-methyl-4-piperidyl)phenyl]-7-oxo-thieno[2,3-c]pyridin-6-yl]-2-phenyl-N-thiazol-2-yl-acetamide;hydrochloride], for which the IC50 was found to be 0.6 nM on EGFR L858R/T790M and 3 nM at EGFR L858R. In addition, the GI50 stood at 360 nM in experiment [1] and 570 nM in experiment [2] (setting [3]).

For `CN1CCC(c2ccc(-c3cc4ccn(C(c5ccccc5)c5nc6ccccc6[nH]5)c(=O)c4s3)cc2)CC1` (stereo not shown) [Compound 008, 6-[1H-benzimidazol-2-yl(phenyl)methyl]-2-[4-(1-methyl-4-piperidyl)phenyl]thieno[2,3-c]pyridin-7-one;hydrochloride], the IC50 is 29 nM at EGFR L858R/T790M and 27 nM against EGFR L858R. In addition, the GI50 was determined as 1870 nM in experiment [1] and 1670 nM in experiment [2] (setting [3]).

Consider `CN1CCC(c2ccc(-c3cc4ccn(C(c5nc6ccccc6[nH]5)c5cc(F)ccc5O)c(=O)c4s3)cc2)CC1` (stereo not shown) [Compound 009, 6-[1H-benzimidazol-2-yl-(5-fluoro-2-hydroxy-phenyl)methyl]-2-[4-(1-methyl-4-piperidyl)phenyl]thieno[2,3-c]pyridin-7-one;dihydrochloride], for which the IC50 against EGFR L858R/T790M was found to be 0.6 nM; on EGFR L858R, 2 nM. In addition, the GI50 is 70 nM in experiment [1] and 20 nM in experiment [2] (setting [3]).

For the compound `CN1CCC(c2ccc(-c3cc4c(=O)n(C(c5nc6ccccc6[nH]5)c5cc(F)ccc5O)ccc4s3)cc2)CC1` (stereo not shown) [Compound 010, 5-[1H-benzimidazol-2-yl-(5-fluoro-2-hydroxy-phenyl)methyl]-2-[4-(1-methyl-4-piperidyl)phenyl]thieno[3,2-c]pyridin-4-one;dihydrochloride], the figures for the IC50 against EGFR L858R/T790M and at EGFR L858R were 0.8 nM and 2 nM, respectively. Besides, the GI50 in experiment [1] turned out to be 1080 nM; in experiment [2] (setting [3]) it was 240 nM.

`CN1CCC(c2ccc(-c3cc4c(s3)C(=O)N(C(c3nc5ccccc5[nH]3)c3cc(F)ccc3O)CC4)cc2)CC1` (stereo not shown) [Compound 011, 6-[1H-benzimidazol-2-yl-(5-fluoro-2-hydroxy-phenyl)methyl]-2-[4-(1-methyl-4-piperidyl)phenyl]-4,5-dihydrothieno[2,3-c]pyridin-7-one;dihydrochloride]: the half-maximal inhibitory concentration (IC50) worked out at 2 nM against EGFR L858R/T790M and 6 nM against EGFR L858R. Besides, the GI50 was 490 nM in experiment [1] and 280 nM in experiment [2] (setting [3]).

For the compound `CN1CCC(c2ccc(-c3cc4c(s3)CCN(C(c3nc5ccccc5[nH]3)c3cc(F)ccc3O)C4=O)cc2)CC1` (stereo not shown) [Compound 012, 5-[1H-Benzimidazol-2-Yl-(5-Fluoro-2-Hydroxy-Phenyl)Methyl]-2-[4-(1-Methyl-4-Piperidyl)Phenyl]-6,7-Dihydrothieno[3,2-c]Pyridin-4-One;Dihydrochloride], the figures for the IC50 at EGFR L858R/T790M and at EGFR L858R were 5 nM and 10 nM, respectively. Further, the GI50 in experiment [1] was determined as 1700 nM; in experiment [2] (setting [3]), 840 nM.

Consider `CN1CCC(c2ccc(-c3cc4c(s3)CN(C(c3nc5ccccc5[nH]3)c3cc(F)ccc3O)C4=O)cc2)CC1` (stereo not shown) [Compound 013, 5-[1H-Benzimidazol-2-Yl-(5-Fluoro-2-Hydroxy-Phenyl)Methyl]-2-[4-(1-Methyl-4-Piperidyl)Phenyl]-6H-Thieno[2,3-c]Pyrrol-4-One;Dihydrochloride], for which the IC50 on EGFR L858R/T790M stood at 14 nM; on EGFR L858R, 9 nM. The results for the GI50 in experiment [1] and in experiment [2] (setting [3]) were 1010 nM and 750 nM, respectively.

As to `CN1CCC(c2ccc(-c3cc4c(s3)C(=O)N(C(c3nc5ccccc5[nH]3)c3cc(F)ccc3O)C4)cc2)CC1` (stereo not shown) [Compound 014, 5-[1H-benzimidazol-2-yl-(5-fluoro-2-hydroxy-phenyl)methyl]-2-[4-(1-methyl-4-piperidyl)phenyl]-4H-thieno[2,3-c]pyrrol-6-one;dihydrochloride], the IC50 against EGFR L858R/T790M and against EGFR L858R was 21 nM throughout. For the same compound, the values for the GI50 in experiment [1] and in experiment [2] (setting [3]) were 1330 nM and 1180 nM, respectively.

For the compound `CN1CCC(c2ccc(-c3ccc4c(c3)N(C)C(=O)N(C(c3nc5ccccc5[nH]3)c3cc(F)ccc3O)C4)cc2)CC1` (stereo not shown) [Compound 017, 3-[1H-benzimidazol-2-yl-(5-fluoro-2-hydroxy-phenyl)methyl]-1-methyl-7-[4-(1-methyl-4-piperidyl)phenyl]-4H-quinazolin-2-one;dihydrochloride], the GI50 in experiment [2] (setting [3]) came to 1090 nM.

The record behind these values is patent publication US20230212171A1, “ALLOSTERIC EGFR INHIBITORS AND METHODS OF USE THEREOF” (Dana-Farber Cancer Institute, Inc., priority 2020, published 2023).
